In general, Ki refers to a dissociation constant, usually derived from enzyme kinetics or from competition with a known ligand. A word on the EC50: it is the midpoint of the concentration-response curve. In general, half-life refers to the time in which the quantity being followed falls by half.

The text below walks through data of patent publication EP2545917B1, “NOVEL EP4 AGONIST” (Kaken Pharmaceutical Co., Ltd., priority 2010, dated 2011).

For one data set, the target named is T1, Human IP (Homo sapiens, UniProt P43119).
T1 construct: expressed in transfected cells; host or cells: COS-7
Briefly: Receptor affinity, tritium-labeled iloprost binding to membranes of transfected COS-7 cells. The conditions noted are these: COS-7 cell membranes. The procedure:
PG receptor affinity of compound F and compound J of the present invention was evaluated. Compound F used was one synthesized in Example 9, and compound J was prepared by separating and purifying the compound synthesized in Example 14 with a column (the same preparations were used in the following Examples). COS-7 cells were transfected with the genes of mouse EP4, human EP1-4 or human IP to overexpress the receptor and then the cell membranes were collected. As a labeled ligand, tritium-labeled PGE2 was used for EPs; tritium-labeled iloprost, for IP. The dissociation constant Kd value was obtained and inhibition constant Ki value of each test compound was determined in a conventional method. As a reference control, PGE2 was used for EPs; beraprost sodium (BPS), for IP.

In a further data set the target is T2, Human EP4 (Homo sapiens, UniProt P35408).
T2 construct: expressed in transfected cells; host or cells: COS-7
Briefly: EP4 agonist activity, CRE-LUC reporter gene in transfected COS-7 cells. It is filed as cell-based. Here is the method: In brief, human EP4 gene and CRE-LUC reporter gene were transfected into COS-7 cells. The cells were treated with a test compound one day later, and incubated for 3 hr. The cells were washed, a luminescence substrate was added, and the luminescence intensity was measured for the agonist activity.
In general terms: Reporter assays use an easily measured gene product as a stand-in for the process of interest.

The subject of data set [1] is blood pressure and heart rate. The data set can be described thus: Effect on blood pressure and heart rate in mice. In kind it is in vivo, ICR mice. As to conditions: intravenous 0.01 mg/5 mL/kg, isoflurane anesthesia. Here is the method: Male ICR mice (5 weeks old, Japan SLC) were purchased, acclimated for 6 days and used for the test. The animals were treated and measured under isoflurane inhalation anesthesia (anesthesia introduced at 2.5%, maintained at 1.8-2.1%), while body temperature was kept at 37°C with a Heat Controller (ATC-402, Unique Medical Co., Ltd.). A catheter for administration of test compounds was inserted into the left femoral vein, and another catheter was inserted into the right femoral artery and connected to a pressure transducer to record each parameter of hemodynamics.
Compound F, the carboxylate form of compound F and BPS were intravenously administered at a dose of 0.01 mg/5 mL/kg, and the effect on the mean blood pressure and heart rate was evaluated with computer software for the analysis of hemodynamics (Fluclet, Dainippon Sumitomo Pharma Co., Ltd.). To the control group was intravenously administered a solvent (1.2% ethanol solution) at 5 mL/kg in the same manner. The results are expressed as a ratio of change in each parameter before and after the drug administration. Three to 6 animals were used for each group, and the results were expressed as average ± standard deviation.

For data set [2], the system named is dextran sodium sulfate-induced colitis. Briefly: Dextran sodium sulfate-induced colitis model in mice (C57BL/6). It is filed as in vivo. As to conditions: C57BL/6 mice, DSS, oral 0.3 and 1 mg/kg once a day. The procedure:
Female C57BL/6 mice (6 weeks old, Japan SLC) were purchased, acclimated for 1 week and used for the study. Except the normal group, the mice were allowed to freely drink a 3 or 2 w/v% DSS (MP Biochemicals, Lot No. 5653H and 5464H, respectively) solution for 1 week to induce colitis. BPS at a dose of 0.3 mg/kg and compound F at doses of 0.3 and 1 mg/kg were orally administered once a day, daily, from the start day of DSS drinking (day 0) to one day before autopsy (day 9). To the control group was orally administered a solvent (1 vol% ethanol solution) at 10 mL/kg in the same manner. The consistency of the stool was graded from score 0 to 4, with normal (0), partly loose stool (1), loose stool (2) and diarrhea (4). The blood feces was also graded from score 0 to 4, with normal (0), partly blood feces (1), blood feces (2) and blood feces plus proctorrhagia (4). The sum of both grades was defined as the stool score (maximum 8). Furthermore, the length of the large intestine was measured in the same manner as in Example 23. Six to 10 animals were used for each group, and the results are shown in average ± standard deviation.

A short description of data set [3]: Plasma pharmacokinetics after intravenous administration to rats. As to conditions: male, rat. In kind it is in vivo. Here is the method: To verify the in vivo metabolic stability of the compound of the present invention, plasma pharmacokinetics was evaluated after intravenous administration to rats. Male rats (6 weeks old, body weight 160 - 180 g) were acclimated for 1 week, and the animals diagnosed healthy were used. A mixture of compound F and compound J of the present invention described in Table 1 (F:J = 52:41), and a mixture of carboxylate forms of compound F and compound J (F:J = 54:34), and compound F (synthesized in Example 9) were dissolved in a small amount of ethanol and physiological saline was added to prepare test compound solutions. The test compound solutions were instantaneously administered intravenously at 1 mL/kg from the femoral vein of non-fasting rats under light ether anesthesia. Venous blood was drawn from the tail vein 5, 15, 30, 45, 60, 90 and 120 min after administration. The blood was mixed with heparin and centrifuged (3000 rpm, 4°C, 15 min) to obtain plasma. The plasma compound concentration was determined by the internal standard method using LC-MS/MS. The determination range by this method was from 0.1 to 100 ng/mL. The compound concentrations obtained from each rat were analyzed in a model-independent way using a pharmacokinetics analysis software WinNonlin (ver.3.3), and average ± standard deviation of 3 animals for each group was obtained.

T2 sequence (P35408 whole entry): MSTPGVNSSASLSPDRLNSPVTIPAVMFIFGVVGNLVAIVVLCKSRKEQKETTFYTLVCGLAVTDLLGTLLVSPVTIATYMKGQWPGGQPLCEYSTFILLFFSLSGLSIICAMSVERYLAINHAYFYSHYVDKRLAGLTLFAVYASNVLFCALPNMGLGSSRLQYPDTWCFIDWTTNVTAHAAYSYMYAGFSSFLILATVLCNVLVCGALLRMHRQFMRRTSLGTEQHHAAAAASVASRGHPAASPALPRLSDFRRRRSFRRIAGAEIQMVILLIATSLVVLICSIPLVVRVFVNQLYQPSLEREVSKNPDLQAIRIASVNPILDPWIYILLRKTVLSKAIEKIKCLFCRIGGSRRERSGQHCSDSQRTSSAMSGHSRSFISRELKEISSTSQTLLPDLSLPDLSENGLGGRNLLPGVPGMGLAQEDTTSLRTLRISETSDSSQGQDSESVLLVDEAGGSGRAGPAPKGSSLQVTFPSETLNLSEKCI
T1 sequence (P43119 whole entry): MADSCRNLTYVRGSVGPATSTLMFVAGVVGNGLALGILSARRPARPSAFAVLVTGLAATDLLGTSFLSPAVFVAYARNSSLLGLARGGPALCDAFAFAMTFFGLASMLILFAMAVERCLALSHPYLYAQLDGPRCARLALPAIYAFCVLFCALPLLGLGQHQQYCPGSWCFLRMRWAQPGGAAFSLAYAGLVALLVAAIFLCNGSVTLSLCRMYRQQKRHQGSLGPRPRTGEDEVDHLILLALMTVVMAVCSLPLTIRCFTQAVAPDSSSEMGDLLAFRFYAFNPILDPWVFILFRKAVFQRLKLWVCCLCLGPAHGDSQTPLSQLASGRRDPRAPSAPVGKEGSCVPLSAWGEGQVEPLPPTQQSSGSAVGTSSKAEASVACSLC

For the compound `Cc1cccc([C@@H](C)[C@H](O)/C=C/[C@@H]2[C@@H]3[C@H](C[C@H]2O)O/C(=C\CCCc2nnn[nH]2)C3(F)F)c1` [Compound F, 4-[(Z)-(1S,5R,6R,7R)-6-[(1E,3R,4R)-3-hydroxy-4-(m-tolyl)-1-pentenyl]-7-hydroxy-2-oxa-4,4-difluoro-bicyclo[3.3.0]octan-3-ylidene]-1-(tetrazol-5-yl)butane], the Ki at Human IP was 670 nM. On Human EP4, this compound gave an EC50 of 3.33 nM. In addition, the “effect on heart rate” value in data set [1] is “little effect on the heart rate”. The “maximum decrease ratio of mean blood pressure” value in data set [1] stood at 16.2%. Also, in data set [2], the “effect on the onset of colitis (stool score, colon shortening)” value is reported as “superior prophylactic effect on the onset of colitis”. Moreover, the half-life in data set [3] (iv, 50 ug/kg) is 1.92 ± 0.517 h; in data set [3] (iv, 300 ug/kg), 2.63 ± 0.25 h; in data set [3] (rats, intravenous, summary of Table 3), 1 to 2 h.
